Values joined by “and” are separate entries in the source; they are usually repeats but may differ in a detail not shown here. Equal entries are not always repeated.
Legend:
[1] = biological target: CDK1 (Homo sapiens, UniProt P06493); conditions: cited from earlier work
[2] = test system: GSK-3; conditions: cited from earlier work
[3] = test system: GSK-3; conditions: acting primarily through beta3-adrenoreceptors; similar extent as insulin; Moule et al. 1997; cited from earlier work
[4] = test system: subjects with HIV-associated cognitive impairment; test: Neuropsychological evaluations, VPA adjunctive therapy trial; type: in vivo, human
Protocol: (§1) Twenty-two eligible subjects, six without cognitive impairment and 16 with cognitive impairment, were enrolled and block-randomized within impairment strata to receive 250 mg of VPA or placebo twice daily. Cognitive impairment was defined as performance at least one standard deviation below the mean on two or more neuropsychological tests, or at least two standard deviations below the mean on one neuropsychological test, using normative data previously applied by the Dana cohort (Dana 1996). Subjects were evaluated at 2, 6, and 10 weeks for adverse clinical and laboratory experiences. Neuropsychological evaluations (see Table 3) were performed at screening, week 6, and week 10 along with global assessments of functioning (subject and investigator), the Fatigue Severity Scale, and the Center for Epidemiologic Studies Depression Scale. A neurological examination and CD4+/CD8+ counts were performed at screening and week 10, while plasma HIV viral load was measured at baseline and week 10.
(§2) Tolerability was assessed based on the proportion of subjects able to complete the 10-week study at the original dose of study medication. Safety measures included the occurrences of adverse events and abnormal results on laboratory tests. Measures of efficacy included changes from baseline in: neuropsychological test scores; the Investigator Clinical Global Impression; MRI indices; functioning; and mood. The study was designed to provide approximately 80% power to detect a 45% difference in tolerability (i.e. 95% versus 50%) between the placebo and VPA groups using a one-sided Fisher's exact test at the 5% level of significance.
Changes from baseline were assessed using paired t-tests. Comparisons between treatment arms were based on unequal-variance two-sample t-tests for continuous variables, and Fisher's Exact Tests for categorical variables. Comparisons between treatment arms were adjusted for baseline values using Analysis of Covariance. Primary statistical analyses were performed according to the intention-to-treat principle, using the last-observation-carried-forward imputation strategy for subjects who prematurely dropped out of the study. Secondary analyses excluded such subjects.

[5] = test system: subjects with HIV-associated cognitive impairment; test: Investigator Clinical Global Impression; conditions: human, in vivo
Protocol: as §2

[6] = design: species or system human; conditions: in vivo
Protocol: as §1
Tolerability was assessed based on the proportion of subjects able to complete the 10-week study at the original dose of study medication. Safety measures included the occurrences of adverse events and abnormal results on laboratory tests. […]

[7] = test system: HIV; test: Plasma HIV viral load; type: in vivo; conditions: individual subjects on VPA (three subjects; the first changed antiretroviral therapy); listed as VPA
Protocol: as §1

[8] = impaired participants, n = 9, VPA 250 mg twice daily
[9] = impaired participants, valproic acid minus placebo mean change to week 10, adjusted for baseline, negative = better on valproic acid
[10] = impaired participants, valproic acid minus placebo mean change to week 10, adjusted for baseline, positive = better on valproic acid

Chain of CDK1 (P06493 whole entry, species assumed): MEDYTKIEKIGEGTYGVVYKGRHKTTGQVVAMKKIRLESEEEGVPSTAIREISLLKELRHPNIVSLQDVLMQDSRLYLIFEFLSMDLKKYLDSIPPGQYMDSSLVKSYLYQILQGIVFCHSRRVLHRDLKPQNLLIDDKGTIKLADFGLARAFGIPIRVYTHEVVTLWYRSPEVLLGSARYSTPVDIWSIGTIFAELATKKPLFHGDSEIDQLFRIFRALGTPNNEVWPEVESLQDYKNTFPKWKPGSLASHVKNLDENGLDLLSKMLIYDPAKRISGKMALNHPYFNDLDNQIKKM
Chain of CDK1 (P14635 whole entry partner, species assumed): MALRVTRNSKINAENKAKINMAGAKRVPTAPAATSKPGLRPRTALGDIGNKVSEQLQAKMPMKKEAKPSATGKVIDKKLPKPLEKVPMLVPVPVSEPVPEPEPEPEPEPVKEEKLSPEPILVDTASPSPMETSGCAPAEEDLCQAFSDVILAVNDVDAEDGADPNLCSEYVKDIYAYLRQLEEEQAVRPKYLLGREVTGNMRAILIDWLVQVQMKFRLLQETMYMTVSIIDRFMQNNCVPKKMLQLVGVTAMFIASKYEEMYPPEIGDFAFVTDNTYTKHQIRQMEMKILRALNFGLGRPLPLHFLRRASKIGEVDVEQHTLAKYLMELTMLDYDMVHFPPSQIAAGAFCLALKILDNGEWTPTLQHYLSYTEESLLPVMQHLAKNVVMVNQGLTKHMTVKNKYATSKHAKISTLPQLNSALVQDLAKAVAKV

[Be+2] [Beryllium]
IC50 [1]: 50 µM
IC50 ([2]; read-out: Inhibition potency IC50): 6 µM

CC(C)NCC(O)c1ccc(O)c(O)c1 (centres unmarked) [Isoproterenol]
Decrease of GSK-3 activity [3]: approximately 50%

CCCC(CCC)C(=O)O [Valproic Acid, Valproic acid]
Composite Neuropsychological Z-score, mean change from baseline to week 10 [4, 8]: 4.56
Digit Symbol, mean change from baseline to week 10 [4, 8]: 6.56
Grooved Pegboard Dominant Hand, mean change from baseline to week 10 [4, 8]: -9.33 s
Grooved Pegboard Nondominant Hand, mean change from baseline to week 10 [4, 8]: -6.44 s
Mean Reaction Time Choice, mean change from baseline to week 10 [4, 8]: -43.38 ms
Mean Reaction Time Sequential, mean change from baseline to week 10 [4, 8]: -8.63 ms
Rey Auditory Verbal Memory Correct Recognition, mean change from baseline to week 10 [4, 8]: 0.11
Rey Auditory Verbal Memory Delayed Recall, mean change from baseline to week 10 [4, 8]: 1.11
Rey Auditory Verbal Memory Recall after Interference, mean change from baseline to week 10 [4, 8]: −0.22
Rey Auditory Verbal Memory Trial 5, mean change from baseline to week 10 [4, 8]: 0.78
Timed Gait, mean change from baseline to week 10 [4, 8]: -0.65 s
Grooved Pegboard Dominant Hand, Treatment Effect [4, 9]: -10.56 s
Grooved Pegboard Nondominant Hand, Treatment Effect [4, 9]: -4.53 s
Mean Reaction Time Choice, Treatment Effect [4, 9]: 5.67 ms
Mean Reaction Time Sequential, Treatment Effect [4, 9]: 29.08 ms
Timed Gait, Treatment Effect [4, 9]: -0.25 s
Composite Neuropsychological Z-score, Treatment Effect [4, 10]: 2.31
Digit Symbol, Treatment Effect [4, 10]: 5.02
Rey Auditory Verbal Memory Correct Recognition, Treatment Effect [4, 10]: 1.16
Rey Auditory Verbal Memory Delayed Recall, Treatment Effect [4, 10]: 1.82
Rey Auditory Verbal Memory Recall after Interference, Treatment Effect [4, 10]: 1.57
Rey Auditory Verbal Memory Total, Treatment Effect [4, 10]: 2.22
Rey Auditory Verbal Memory Trial 5, Treatment Effect [4, 10]: −0.38
Between group differences on independent neuropsychological tests and composite z-score ([4]; impaired subjects, VPA vs placebo): not statistically significant
Investigator clinical global impression, placebo vs VPA group [5]: No significant difference
Adverse experience [6]: mild new onset of acid reflux
Increase in liver function tests [6]: < 2.5 times the upper limit of normal
Change in plasma HIV RNA from baseline to week 10 [7]: 33,300 to 316 copies/ml and 100,000 to 93,900 copies/ml and 32,500 to 24,700 copies/ml

GRPRTTS*FAE [Pseudosubstrate peptide]
Ki ([2]; read-out: Inhibition potency Ki): 700 µM
